Measured values reported in EP4582426A1, “PAN-KRAS INHIBITOR COMPOUND” (Adlai Nortye Biopharma Co., Ltd., priority 2022, dated 2024).

Columns and labels:
[1] = test system: AsPC-1 (G12D); assay: In vitro cell proliferation inhibition test (CellTiter-Glo Luminescent Cell Viability Assay); type: cell-based; conditions: AsPC-1 cell line, Pancreas, KRAS (p.G12D), cells and compounds co-incubated 72 hours
Procedure, shortened: (§1)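 Cells were seeded at 1000-5000/well and cultured overnight, then exposed to compound (top final 10 µM, ten 3-fold dilutions) for 72 h at 37°C, 5% CO2. Viability was read by CellTiter-Glo luminescence; IC50 was obtained from four-parameter fits of normalized signal.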

[2] = test system: SW480 (G12V); assay: as above; type: cell-based; conditions: SW480 cell line, Large intestine, Colon, KRAS (p.G12V), cells and compounds co-incubated 72 hours
Procedure, shortened: as §1

Row | Compound | IC50 [1] [nM] | IC50 [2] [nM] | IC50 ([1]; listed as 7') [nM] | IC50 ([2]; listed as 7') [nM]
1 | (1S,2S)-N-((6^3S,4S,Z)-1^1-ethyl-1^2-(2-((S)-1-methoxyethyl)-5-(pyrimidin-5-ylethynyl)pyridin-3-yl)-10,10-dimethyl-5,7-dioxo-6^1,6^2,6^3,6^4,6^5,6^6-hexahydro-1^1H-8-oxa-2(4,2)-thiazola-1(5,3)-indola-6(1,3)-pyridazinacycloundecaphane-4-yl)-2-methylcyclopropane-1-carboxamide [Example 22] | 6.5 | 19.2 |  | 
2 | CCn1c(-c2cc(C#CC3CCN(CCO)CC3)cnc2C(C)OC)c2c3cc(ccc31)-c1csc(n1)CC(NC(=O)C1CC1C)C(=O)N1CCCC(N1)C(=O)OCC(C)(C)C2 [Example 55, (1S,2S)-N-((6^3S,4S,Z)-1^1-ethyl-1^2-(5-((1-(2-hydroxyethyl)piperidin-4-yl)ethynyl)-2-((S)-1-methoxyethyl)pyridin-3-yl)-10,10-dimethyl-5,7-dioxo-6^1,6^2,6^3,6^4,6^5,6^6-hexahydro-1^1H-8-oxa-2(4,2)-thiazola-1(5,3)-indola-6(1,3)-pyridazinacycloundecaphane-4-yl)-2-methylcyclopropane-1-carboxamide] | 3 | 23.3 |  | 
3 | CCNc1cccc(C#Cc2cnc([C@H](C)OC)c(-c3c4c5cc(ccc5n3CC)-c3csc(n3)C[C@H](NC(=O)[C@H]3C[C@@H]3C)C(=O)N3CCC[C@H](N3)C(=O)OCC(C)(C)C4)c2)n1 (single isomer, unassigned) [Example 31] | 78 | 100 |  | 
4 | (1S,2S)-N-((6^3S,4S,Z)-1^1-ethyl-1^2-(2-((S)-1-methoxyethyl)-5-(((S)-4-methyl-1,1-dioxidothiomorpholin-2-yl)ethynyl)pyridin-3-yl)-10,10-dimethyl-5,7-dioxo-6^1,6^2,6^3,6^4,6^5,6^6-hexahydro-1^1H-8-oxa-2(4,2)-thiazola-1(5,3)-indola-6(1,3)-pyridazinacycloundecaphane-4-yl)-2-methylcyclopropane-1-carboxamide [Example 45] | 5.3 | 7.4 |  | 
5 | (1S,2S)-N-((6^3S,4S,Z)-1^2-(5-(3-(dimethylamino)prop-1-yn-1-yl)-2-((S)-1-methoxyethyl)pyridin-3-yl)-1^1-ethyl-10,10-dimethyl-5,7-dioxo-6^1,6^2,6^3,6^4,6^5,6^6-hexahydro-1^1H-8-oxa-2(4,2)-thiazola-1(5,3)-indola-6(1,3)-pyridazinacycloundecaphane-4-yl)-2-methylcyclopropane-1-carboxamide [Example 61] | 5 | 1.58 |  | 
6 | CCn1c(-c2cc(C#C[C@@H]3COCCN3C)cnc2[C@H](C)OC)c2c3cc(ccc31)-c1csc(n1)C[C@H](NC(=O)[C@H]1C[C@@H]1C)C(=O)N1CCC[C@H](N1)C(=O)OCC(C)(C)C2 [Example 28, (1S,2S)-N-((6^3S,4S,Z)-1^1-ethyl-1^2-(2-((S)-1-methoxyethyl)-5-(((R)-4-methylmorpholin-3-yl)ethynyl)pyridin-3-yl)-10,10-dimethyl-5,7-dioxo-6^1,6^2,6^3,6^4,6^5,6^6-hexahydro-1^1H-8-oxa-2(4,2)-thiazola-1(5,3)-indola-6(1,3)-pyridazinacycloundecaphane-4-yl)-2-methylcyclopropane-1-carboxamide] | 1.9 | 2.5 |  | 
7 | CCn1c(-c2cc(C#CCN3CCOCC3)cnc2C(C)OC)c2c3cc(ccc31)-c1csc(n1)CC(NC(=O)C1CC1F)C(=O)N1CCCC(N1)C(=O)OCC(C)(C)C2 (single isomer, unassigned) [Example 24] | 24.2 | 58.4 |  | 
8 | CCn1c(-c2cc(C#C[C@@H]3COCCN3C)cnc2[C@H](C)OC)c2c3cc(ccc31)-c1csc(n1)C[C@H](NC(=O)[C@H]1C[C@@H]1C)C(=O)N1CCC[C@H](N1)C(=O)OCC(C)(C)C2 [Example 7, (1S,2S)-N-((63S,4S,Z)-11-ethyl-12-(2-((S)-1-methoxyethyl)-5-(((R)-4-methylmorpholin-3-yl)ethynyl)pyridin-3-yl)-10,10-dimethyl-5,7-dioxo-61,62,63,64,65,66-hexahydro-11H-8-oxa-2(4,2)-Thiazola-1(5,3)-indola-6(1,3)-pyridazinacyclonecaphane-4-yl)-2-methylcyclopropane-1-carboxamide] | 5.1 | 4.6 | 2640 | 830
